Laboratory results from patent publication US7514438B2, “Melanin concentrating hormone receptor antagonist” (Amgen, Inc., priority 2003, dated 2009).
Where two headings read alike, the source gives them in different places.

Biological target: T1, rat MCH 1 receptor (rMCH1R) (Rattus norvegicus, UniProt P97639)
T1 construct: expressed in transfected cells; host or cells: HEK 293 (membranes)
Experiment: 125I-MCH ligand binding assay, rMCH
Settings: HEK 293 membranes, 0.2 nM 125I native-MCH, read-out: IC50 in the rMCH binding assay
Experimental: Human embryonic kidney cells (293 total) expressing either human, rat, or mouse MCH receptor were harvested from 150 mm culture dishes using PBS. Spinning at 1500 rpm for 2 minutes initially pelleted cells. The resulting pellet was then homogenized in 15 mL ice cold sucrose buffer (25 mM HEPES, 0.3 M sucrose, pH 7.4) with a motorized, glass fitted, Teflon® homogenizer. The homogenate was centrifuged at 48,000×g at 4° C. for 10 minutes, resuspended in 15 mL assay buffer (25 mM HEPES, 10 mM mgCl2, 0.2% BSA, 0.1 mg/mL STI, 0.1 mg/mL Pefabloc®, 1 μM Phosphoramidon, pH 7.4) with a Tissue-Tearor® (Biospec Products) and centrifuged again at 48,000×g for 10 minutes. The pellet was homogenized for a third time in 15 mL assay buffer using the Tissue-Tearor® and again centrifuged at 48,000×g for 10 minutes. The resulting pellet was resuspended in assay buffer at a wet weight concentration of 10-20 mg/mL.
Binding assays were determined as described below using mouse, rat or human MCH 1 receptors (mMCH1R, rMCH1R, and hMCH1R, respectively) expressed in HEK 293; IC50 values were calculated.
Binding assays were performed in 96-well U-bottom plates. Membranes (100 μg tissue) were incubated at 30° C. for 90 minutes in assay buffer with various peptides in the presence of 0.2 nM ^125I native-MCH (Perkin-Elmer Life Sciences, Boston, Mass.) in 100 μL total volume. Non-specific binding was assessed in the presence of 1 μM cold native-MCH. The reaction was terminated by rapid filtration through Unfilter-96 GF/C glass fiber filter plates (FilterMate® 196 Harvester, Packard Instrument Co., Meriden, Conn.) pre-soaked in PBS/0.5% BSA, followed by three washes with 300 μL ice-cold water. Bound radioactivity was determined using a TopCount® microplate scintillation and luminescence counter (Packard Instrument Co., Meriden, Conn.). Nonlinear regression analyses of drug concentration curves were performed using GraphPad Prism® (GraphPad Software, Inc., San Diego, Calif.).

T1 sequence (P97639 whole entry): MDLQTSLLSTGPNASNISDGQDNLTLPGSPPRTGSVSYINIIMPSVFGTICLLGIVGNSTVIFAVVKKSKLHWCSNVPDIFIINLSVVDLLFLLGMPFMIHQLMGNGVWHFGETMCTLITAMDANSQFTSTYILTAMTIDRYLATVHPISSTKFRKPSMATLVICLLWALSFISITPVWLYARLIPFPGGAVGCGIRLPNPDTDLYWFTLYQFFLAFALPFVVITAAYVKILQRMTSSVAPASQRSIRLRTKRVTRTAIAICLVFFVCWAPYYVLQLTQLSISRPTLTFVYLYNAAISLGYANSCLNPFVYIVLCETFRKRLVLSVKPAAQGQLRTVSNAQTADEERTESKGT

IC50 (100 μM or less list) | IC50 (100 nM or less list) | SMILES
≤ 100 µM | ≤ 0.1 µM | Cc1cccc(C)c1-n1nnnc1[C@H](c1cc(Cl)cc(Cl)c1)N1CCN(C/C=C/c2ccccc2)CC1 (racemic) [Compound 137, 1-{(3,5-dichlorophenyl)-[1-(2,6-dimethylphenyl)-1H-tetrazol-5-yl]methyl}-4-(3-phenylallyl)piperazine]
≤ 100 µM | ≤ 0.1 µM | Cc1cccc(C)c1-n1nnnc1[C@H](c1cccc(Br)c1)N1CCN(C/C=C/c2ccccc2)CC1 (racemic) [Compound 139, 1-{(3-bromophenyl)-[1-(2,6-dimethylphenyl)-1H-tetrazol-5-yl]methyl}-4-(3-phenylallyl)piperazine]
≤ 100 µM |  | Cc1cccc(C)c1-n1nnnc1C(c1cccc(C(F)(F)F)c1)N1CCN(CCCc2ccccc2)CC1 (racemic) [Compound 154, 1-[[1-(2,6-dimethylphenyl)-1H-tetrazol-5-yl]-(3-trifluoromethylphenyl)methyl]-4-(3-phenylpropyl)piperazine]
≤ 100 µM |  | Cc1cccc(C)c1-n1nnnc1[C@H](c1cccc(C(F)(F)F)c1)N1CCN(Cc2ccc3c(c2)OCO3)CC1 (racemic) [Compound 156, 1-benzo[1,3]dioxol-5-ylmethyl-4-[[1-(2,6-dimethylphenyl)-1H-tetrazol-5-yl]-(3-trifluoromethylphenyl)methyl]piperazine]
≤ 100 µM |  | CCN([C@@H]1CCN(Cc2ccccc2)C1)[C@@H](c1cccc(C(F)(F)F)c1)c1nnnn1-c1c(C)cccc1C (racemic) [Compound 162, (1-benzylpyrrolidin-3-yl)-[[1-(2,6-dimethylphenyl)-1H-tetrazol-5-yl]-(3-trifluoromethylphenyl)methyl]ethylamine]
≤ 100 µM | ≤ 0.1 µM | COc1cc(/C=C/CN2CCN([C@@H](c3cccc(C(F)(F)F)c3)c3nnnn3-c3c(C)cccc3C)CC2)ccc1O (racemic) [Compound 163, 4-(3-{4-[[1-(2,6-dimethylphenyl)-1H-tetrazol-5-yl]-(3-trifluoromethylphenyl)methyl]piperazin-1-yl}propenyl)-2-methoxyphenol]
≤ 100 µM |  | Cc1cccc(C)c1-n1nnnc1[C@H](c1ccc(Cl)cc1)N1CCN(C/C=C/c2ccccc2)CC1 [Compound 118, 1-{(4-chiorophenyl)-[1-(2,6-dimethylphenyl)-1H-tetrazol-5-yl]methyl}-4-(3-phenylallyl)piperazine]

Second part, the molecule before the results:

SMILES | IC50 (100 μM or less list) | IC50 (100 nM or less list)
CC(=O)Nc1ccc([C@@H](c2nnnn2-c2c(C)cccc2C)N2CCN(C/C=C/c3ccccc3)CC2)cc1 (racemic) [Compound 131, n-(4-{[1-(2,6-dimethylphenyl)-1H-tetrazol-5-yl]-[4-(3-phenylallyl)piperazin-1-yl]methyl}phenyl)acetamide] | ≤ 100 µM | 
CCOc1ccc([C@@H](c2nnnn2-c2c(C)cccc2C)N2CCN(C/C=C/c3ccccc3)CC2)cc1 (racemic) [Compound 136, 1-[[1-(2,6-dimethylphenyl)-1H-tetrazol-5-yl]-(4-ethoxyphenyl)methyl]-4-(3-phenylallyl)piperazine] | ≤ 100 µM | ≤ 0.1 µM
Cc1cccc(C)c1-n1nnnc1[C@H](c1cccc([N+](=O)[O-])c1)N1CCN(C/C=C/c2ccccc2)CC1 (racemic) [Compound 138, 1-[[1-(2,6-dimethylphenyl)-1H-tetrazol-5-yl]-(3-nitrophenyl)methyl]-4-(3-phenylallyl)piperazine] | ≤ 100 µM | ≤ 0.1 µM
Cc1cccc(C)c1-n1nnnc1[C@H](c1cccc(Cl)c1)N1CCN(C/C=C/c2ccccc2)CC1 (racemic) [Compound 140, 1-{(3-chlorophenyl)-[1-(2,6-dimethylphenyl)-1H-tetrazol-5-yl]methyl}-4-(3-phenylallyl)piperazine] | ≤ 100 µM | ≤ 0.1 µM
Cc1cccc(C)c1-n1nnnc1C1(N2CCN(C/C=C/c3ccccc3)CC2)CCN(C)CC1 [Compound 99, 1-{4-[1-(2,6-dimethylphenyl)-1H-tetrazol-5-yl]-1-methylpiperidin-4-yl}-4-(3-phenylallyl)piperazine] | ≤ 100 µM | 
